Reference: BindingDB's records for doi:10.1021/jm00365a017 (1983)

Molecular target: Delta-type opioid receptor (Mus musculus) (UniProt P32300)
Test: Ability to induce 50% of maximal effect in mouse vas deferens expressing Opioid receptor delta 1

Sequence of Delta-type opioid receptor (Mus musculus) (P32300 whole entry, looked up): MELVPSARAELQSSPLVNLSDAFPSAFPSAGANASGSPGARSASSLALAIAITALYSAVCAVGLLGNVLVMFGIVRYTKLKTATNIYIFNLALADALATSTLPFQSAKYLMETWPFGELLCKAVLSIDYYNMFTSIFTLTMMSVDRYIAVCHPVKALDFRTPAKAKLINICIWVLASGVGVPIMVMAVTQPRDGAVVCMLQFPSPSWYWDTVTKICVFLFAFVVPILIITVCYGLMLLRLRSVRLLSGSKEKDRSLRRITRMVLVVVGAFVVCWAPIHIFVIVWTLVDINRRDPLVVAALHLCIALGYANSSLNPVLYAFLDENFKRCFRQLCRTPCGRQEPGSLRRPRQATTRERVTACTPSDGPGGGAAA

**Q.** How did the IC50 turn out when `CC1C2Cc3ccc(O)cc3C1(C)CCN2CCc1ccccc1` (stereo unspecified) was run?
**A.** 8 nM
